Results on 6 molecules are retold here after article PMC11024979 (ACS Omega, 2024).

The target in test [1] is anti-cortisol (17) Fab fragment. Description: Surface plasmon resonance. To be noted: read-out: KD (SPR); determined in this work. It is filed as binding, murine.
Test [2] deals with anti-cortisol (17) Fab fragment. Description: Native MS direct ligand titration, KD by one-site binding fit. Also noted: species or system murine. The settings on record: native MS KD ratio.
Test [3] addresses anti-cortisol (17) Fab fragment. Kind of test: Initial ligand screening by native MS. To be noted: Fab 0.1 μM, ligand 100 nM to 10 μM. The class given is binding, murine.
For test [4] the target is unchanged. To be noted: read-out: KD (SPR); determined in previous work ref 9; cited from earlier work.

By Kd is commonly meant the concentration at which binding is half-saturated.

Where two headings read alike, the source gives them in different places.

In the case of `C[C@]12CCC(=O)C=C1CC[C@@H]1[C@@H]2CC[C@@]2(C)[C@H]1CC[C@]2(O)C(=O)CO` [11-deoxycortisol], the Kd in test [1] is 120 nM. For the same molecule, in test [2], the “fold higher KD compared to corticosterone” value is “more than 4 fold”. Further, the “approximate KD range from initial ligand screening” value (shortened to “approximate KD range”) in test [3] was “submicromolar affinity”. In the case of `C[C@]12C[C@H](O)[C@H]3[C@@H](CCC4=CC(=O)CC[C@@]43C)[C@@H]1CC[C@@H]2C(=O)CO` [corticosterone], in test [4], the Kd was 31 ± 2 nM. Besides, the “approximate KD range” value in test [3] is reported as “nanomolar range”.

Regarding `C[C@]12CCC(=O)C=C1CC[C@@H]1[C@@H]2[C@@H](O)C[C@@]2(C)[C@H]1CC[C@]2(O)C(=O)CO` [cortisol], the Kd in test [4] was 7 ± 1 nM. Moreover, in test [3], the “approximate KD range” value was “nanomolar range”. With `C[C@]12C=CC(=O)C=C1CC[C@@H]1[C@@H]2[C@@H](O)C[C@@]2(C)[C@H]1CC[C@]2(O)C(=O)CO` [prednisolone], the Kd in test [4] was 13 ± 1 nM. In test [3], the “approximate KD range” value is reported as “nanomolar range”. For `CC(=O)[C@H]1CC[C@H]2[C@@H]3CCC4=CC(=O)CC[C@]4(C)[C@H]3CC[C@]12C` [progesterone], the dissociation constant (Kd) in test [4] is 15000 ± 3000 nM. On to `C[C@]12CC[C@H]3[C@@H](CCC4=CC(=O)CC[C@@]43C)[C@@H]1CC[C@@H]2O` [testosterone], for which the equilibrium dissociation constant (Kd) in test [4] is 23000 ± 4000 nM.
